Columns and labels:
NADH-oxidase = conditions: plasma membrane redox enzyme; cited from earlier work
human mesothelioma cells = conditions: nude mice with (drug-resistant) human mesothelioma cells; compared to animals treated only with doxorubicin; cited from earlier work
[1] = test system: leukemic cells in peripheral blood; conditions: cited from earlier work
[2] = test system: metastatic lesions from a sarcoma; conditions: treatment begun August 2000
advanced ovarian cancer = assay: unpublished randomized clinical study in advanced ovarian cancer; assay type: in vivo, human; conditions: equivalent to 1 mg doxorubicin per day on days 15 through 19 of monthly cycles; time between diagnosis and randomization 18 months
Procedure: There is an unpublished clinical study of 23 patients with advanced ovarian cancer who were randomized into test (12 patients) and placebo (11 patients) groups. The test group received transferrin-doxorubicin conjugates equivalent to 1 mg doxorubicin per day on days 15 through 19 of monthly treatment cycles.

[3] = test system: multi-drug resistant cells; conditions: cited from earlier work

## COc1cccc2c1C(=O)c1c(O)c3c(c(O)c1C2=O)C[C@@](O)(C(=O)CO)C[C@@H]3O[C@H]1C[C@H](N)[C@H](O)[C@H](C)O1 [doxorubicin]
NADH-oxidase
  inhibition of NADH-oxidase: efficient inhibitor

## glutaraldehyde-prepared transferrin-doxorubicin conjugates
Human mesothelioma cells
  survival (prolonging life): significantly prolonging life
[1]; 7 patients, 1 mg/day iv for 5 days, within 10-days following therapy
  decrease of number of leukemic cells in peripheral blood: 86%
[1]; bone marrow biopsies before and after treatment
  extension of disease: no extension of disease
[1]; seven acute leukemia patients, 1 mg/day intravenously for 5 days
  toxic effects: no toxic effects

## transferrin-doxorubicin conjugates
NADH-oxidase
  inhibition of NADH-oxidase: inhibit
[2]; by January
  radiological evidence of tumor: no radiological evidence of tumor
[2]; by November
  metastatic lesions in the lungs: substantially cleared of metastatic lesions
Advanced ovarian cancer
  Cox regression estimates of survival rates, test versus placebo: significant difference
[3]
  killing of multi-drug resistant cells: effectively kill
